The values below come from patent US11781110B2, “Induction of corneal endothelial cells” (The Regents of the University of California, priority 2016, dated 2023).

The test system of assay [1] is corneal endothelial cells (CECs). To be noted: cited from earlier work.
The subject of assay [2] is rabbit corneal endothelium. As to the kind of experiment: Rabbit corneal endothelium injury model. It is filed as in vivo. The conditions noted are these: compared.
For assay [3], the system named is EFSC-derived NCSCs. Put plainly: Differentiation of CECs from ocular neural crest stem cells. The assay is classed as cell-based, human. To be noted: added to the differentiation medium. As for the experimental part: Differentiation of CECs from ocular neural crest stem cells. In order to test if CECs could be induced from the EFSC-derived NCSCs directly in vitro, NCSCs were seeded at low cell density on an FNC coated plate. […] They remained proliferative and formed a relatively homogenous monolayer of cells after a few passages (FIG. 5B). To further characterize the NCSC-derived CEC sheets, immunostaining for several typical CEC markers including tight junction protein 1 (TJP1/ZO-1), N-Cadherin, and Na+/K+ ATPase was performed (FIG. 5C).

Assay [4] relates to CEC. As to the kind of experiment: CEC migration, proliferation and wound healing with ROCK inhibitor. The assay is classed as cell-based. To be noted: compared with Y-27632.
Assay [5] deals with EFSCs. Put plainly: Directed differentiation of eye field stem cells into ocular neural crest stem cells. It is filed as cell-based, human. To be noted: 3 μM in NCSC induction medium; after a week of induction. As for the experimental part: Directed differentiation of eye field stem cells into ocular neural crest stem cells. […] The in vitro derivation of neural crest stem cells from PSCs has been previously described (Chambers et al., 2013; Lee et al., 2007). It was reasoned that, if EFSCs could be primed toward ocular neural crest lineage, the cells could serve as a direct and renewable source to generate CECs in culture. To direct EFSCs toward neural crest fate, EFSCs were seeded at low density, and neural crest lineage specification was initiated in NCSC induction medium supplemented with the presence of 3 μM CHIR 99021. […] Immunostaining also detected the expression of nuclear translocation of beta-catenin (FIG. 4C), an indication of increased WNT canonical signaling during neural crest formation.

Regarding `C[C@@H](N)[C@H]1CC[C@H](C(=O)Nc2ccncc2)CC1` [Y-27632], in assay [1], the “apoptosis of CECs” value is given as “inhibition of apoptosis” and the “proliferation of corneal endothelial cells (CECs)” value was “increased proliferation”. The “corneal endothelial wound healing” value in assay [1] (in vitro and in vivo) is recorded as “enhanced corneal endothelial wound healing”.
As to `Cc1cncc2cccc(S(=O)(=O)N3CCCNC[C@@H]3C)c12` [H-1125], the wound healing effect entry in assay [2] is recorded as “better wound healing effect”. Also, the “effect on differentiation of CECs” value in assay [3] was “improve the differentiation of CECs”. Also, the “effect on CEC migration, proliferation and wound healing” value in assay [4] is on record as “more significant stimulatory effect”.
As for `Cc1c[nH]c(-c2cnc(NCCNc3ccc(C#N)cn3)nc2-c2ccc(Cl)cc2Cl)n1` [CHIR 99021], the “expression of NCSC surface marker HNK-1” value in assay [5] was “majority of EFSCs start to express a typical NCSC surface marker HNK-1”.
